Here are results for one compound from US20100278925A1, “FORMULATIONS OF ORGANO-PLATINIC COMPOUNDS IN THE PRESENCE OF ASSOCIATIVE POLYMERS, PRODUCTS THUS OBTAINED AND USES THEREOF” (Coatex S.A. S., priority 2007, published 2010).

The nature of this series: Reference tests: oxaliplatin added into water without polymer or with non-associative polymer. It counts as physicochemical. The conditions noted are these: oxaliplatin 10.5 g/L in water, pH 7, without polymer. An excerpt: This test is a reference which consists of adding the oxaliplatin into water, without the associative water-soluble polymer.
This test is a reference which consists of adding the oxaliplatin into water, […].
Next, 1.9 g of a water-soluble polymer with 30% solids content, said polymer being made up 36.9% by weight of methacrylic acid and 63.1% by weight of ethyl acrylate.

Take `O=C1[O][Pt]2([NH][C@@H]3CCCC[C@H]3[NH]2)[O]C1=O` [oxaliplatin]: the “Appearance of the result” value was “powder suspended in the water”.
